Assay results as given in ChEMBL document CHEMBL4396896, “N-Aminoacyl and N-hydroxyacyl derivatives of diosgenyl 2-amino-2-deoxy-β-d-glucopyranoside: Synthesis, antimicrobial and hemolytic activities” (Bioorg Med Chem, 2019).
Converted amounts (≈) assume the structure as drawn.

Experiments:
Candida albicans [1] = assay: Antifungal activity against Candida albicans ATCC 10231 incubated in sabouraud liquid medium under aerobic condition for 48 hrs using initial inoculum of 10^3 CFU/ml by serial dilution method; format: functional; conditions: ATCC 10231, 48 h
Staphylococcus aureus = assay: Antibacterial activity against Staphylococcus aureus ATCC 25923 incubated in MHB II under aerobic condition for 18 hrs using initial inoculum of 5 x 10^5 CFU/ml by serial dilution method; format: functional; conditions: ATCC 25923, 18 h
[2] = Haemolytic activity in human erythrocytes assessed as haemolytic index by measuring hemoglobin release at 128 mg/L incubated for 1 hr by microplate spectrophotometry; format: ADME, cell-based, Erythrocyte; conditions: read-out: HI
Pseudomonas aeruginosa = assay: Antibacterial activity against Pseudomonas aeruginosa ATCC 9027 incubated in MHB II under aerobic condition for 18 hrs using initial inoculum of 5 x 10^5 CFU/ml by serial dilution method; format: functional; conditions: ATCC 9027, 18 h
Bacillus subtilis = assay: Antibacterial activity against Bacillus subtilis ATCC 6633 incubated in MHB II under aerobic condition for 18 hrs using initial inoculum of 5 x 10^5 CFU/ml by serial dilution method; format: functional; conditions: ATCC 6633, 18 h
Klebsiella pneumoniae = assay: Antibacterial activity against Klebsiella pneumoniae ATCC 700603 incubated in MHB II under aerobic condition for 18 hrs using initial inoculum of 5 x 10^5 CFU/ml by serial dilution method; format: functional; conditions: ATCC 700603, 18 h
Escherichia coli = assay: Antibacterial activity against Escherichia coli ATCC 25922 incubated in MHB II under aerobic condition for 18 hrs using initial inoculum of 5 x 10^5 CFU/ml by serial dilution method; format: functional; conditions: ATCC 25922, 18 h
Proteus mirabilis = assay: Antibacterial activity against Proteus mirabilis PCM 543 incubated in MHB II under aerobic condition for 18 hrs using initial inoculum of 5 x 10^5 CFU/ml by serial dilution method; format: functional; conditions: PCM 543, 18 h
Yarrowia lipolytica = assay: Antifungal activity against Candida lipolytica PCM 2680 incubated in sabouraud liquid medium under aerobic condition for 48 hrs using initial inoculum of 10^3 CFU/ml by serial dilution method; format: functional; conditions: PCM 2680, 48 h
Enterococcus faecalis [3] = assay: Antibacterial activity against Enterococcus faecalis ATCC 29212 incubated in MHB II under aerobic condition for 18 hrs using initial inoculum of 5 x 10^5 CFU/ml by serial dilution method; format: functional; conditions: ATCC 29212, 18 h
[4] = system: Staphylococcus epidermidis; assay: Antibacterial activity against Staphylococcus epidermidis PCM 2118 incubated in MHB II under aerobic condition for 18 hrs using initial inoculum of 5 x 10^5 CFU/ml by serial dilution method; format: functional; conditions: PCM 2118, 18 h
[5] = Haemolytic activity in human erythrocytes assessed as haemolytic index by measuring hemoglobin release at 0.5 to 128 mg/L incubated for 1 hr by microplate spectrophotometry relative to control; format: ADME, cell-based, Erythrocyte; conditions: human erythrocytes, read-out: HI
[6] = Haemolytic activity in human erythrocytes assessed as haemolytic index by measuring hemoglobin release at 64 mg/L incubated for 1 hr by microplate spectrophotometry; format: ADME, cell-based, Erythrocyte; conditions: read-out: HI
Candida albicans [7] = assay: […] activity against Candida albicans ATCC 10231 by antimicrobial susceptibility based testing method; format: functional
Enterococcus faecalis [8] = assay: microbe, parasite or virus in culture; conditions: ATCC 29212
Description: Antibacterial activity against Enterococcus faecalis ATCC 29212 by antimicrobial susceptibility based testing method

SMILES | MIC (Candida albicans [1]) [µg/mL] | MIC (Staphylococcus aureus) [µg/mL] | hemolysis at 1 h, 128 mg/L [2] [%] | MIC (Pseudomonas aeruginosa) [µg/mL] | MIC (Bacillus subtilis) [µg/mL] | MIC (Klebsiella pneumoniae) [µg/mL] | MIC (Escherichia coli) [µg/mL] | MIC (Proteus mirabilis) [µg/mL] | MIC (Yarrowia lipolytica) [µg/mL] | MIC (Enterococcus faecalis [3]) [µg/mL] | MIC [4] [µg/mL] | hemolysis at 1 h [5] [%] | hemolysis at 1 h, 64 mg/L [6] [%] | MIC (Candida albicans [7]) [µg/mL] | MIC (Enterococcus faecalis [8]) [µg/mL]
C[C@@H]1CC[C@@]2(OC1)O[C@H]1C[C@H]3[C@@H]4CC=C5C[C@@H](O[C@@H]6O[C@H](CO)[C@@H](O)[C@H](O)[C@H]6NC(=O)[C@@H](N)[C@@H](C)O)CC[C@]5(C)[C@H]4CC[C@]3(C)[C@H]1[C@@H]2C | 4 (≈ 5.91 µM) | 16 (≈ 23.6 µM) | 56 | > 128 | 32 (≈ 47.3 µM) | > 128 | > 128 | > 128 | 4 (≈ 5.91 µM) | 16 (≈ 23.6 µM) | 16 (≈ 23.6 µM) | – | – | – | –
C[C@@H]1CC[C@@]2(OC1)O[C@H]1C[C@H]3[C@@H]4CC=C5C[C@@H](O[C@@H]6O[C@H](CO)[C@@H](O)[C@H](O)[C@H]6NC(=O)[C@@H](C)N)CC[C@]5(C)[C@H]4CC[C@]3(C)[C@H]1[C@@H]2C | 4 (≈ 6.18 µM) | 2 (≈ 3.09 µM) | – | > 128 | 2 (≈ 3.09 µM) | > 128 | > 128 | > 128 | 8 (≈ 12.4 µM) | 2 (≈ 3.09 µM) | 2 (≈ 3.09 µM) | < 10 | – | – | –
C[C@@H]1CC[C@@]2(OC1)O[C@H]1C[C@H]3[C@@H]4CC=C5C[C@@H](O[C@@H]6O[C@H](CO)[C@@H](O)[C@H](O)[C@H]6NC(=O)[C@@H](N)CCCCN)CC[C@]5(C)[C@H]4CC[C@]3(C)[C@H]1[C@@H]2C | 4 (≈ 5.68 µM) | 16 (≈ 22.7 µM) | 92 | > 128 | 32 (≈ 45.5 µM) | > 128 | > 128 | > 128 | 4 (≈ 5.68 µM) | 16 (≈ 22.7 µM) | 16 (≈ 22.7 µM) | – | – | – | –
C[C@@H]1CC[C@@]2(OC1)O[C@H]1C[C@H]3[C@@H]4CC=C5C[C@@H](O[C@@H]6O[C@H](CO)[C@@H](O)[C@H](O)[C@H]6NC(=O)C(F)(F)F)CC[C@]5(C)[C@H]4CC[C@]3(C)[C@H]1[C@@H]2C | > 128 | > 128 | – | > 128 | > 128 | > 128 | > 128 | > 128 | – | > 128 | > 128 | – | – | – | –
CC(=O)NCC(=O)N[C@H]1[C@H](O[C@H]2CC[C@@]3(C)C(=CC[C@H]4[C@@H]5C[C@@H]6O[C@]7(CC[C@@H](C)CO7)[C@@H](C)[C@@H]6[C@@]5(C)CC[C@@H]43)C2)O[C@H](CO)[C@@H](O)[C@@H]1O | > 128 | > 128 | – | > 128 | > 128 | > 128 | > 128 | > 128 | > 128 | > 128 | > 128 | < 10 | – | – | –
CNCC(=O)N[C@H]1[C@H](O[C@H]2CC[C@@]3(C)C(=CC[C@H]4[C@@H]5C[C@@H]6O[C@]7(CC[C@@H](C)CO7)[C@@H](C)[C@@H]6[C@@]5(C)CC[C@@H]43)C2)O[C@H](CO)[C@@H](O)[C@@H]1O | 4 (≈ 6.18 µM) | 4 (≈ 6.18 µM) | – | > 128 | 4 (≈ 6.18 µM) | > 128 | > 128 | > 128 | 4 (≈ 6.18 µM) | 4 (≈ 6.18 µM) | 4 (≈ 6.18 µM) | < 10 | – | – | –
CSCC[C@H](N)C(=O)N[C@H]1[C@H](O[C@H]2CC[C@@]3(C)C(=CC[C@H]4[C@@H]5C[C@@H]6O[C@]7(CC[C@@H](C)CO7)[C@@H](C)[C@@H]6[C@@]5(C)CC[C@@H]43)C2)O[C@H](CO)[C@@H](O)[C@@H]1O | – | > 128 | – | > 128 | > 128 | > 128 | > 128 | > 128 | – | 4 (≈ 5.66 µM) | 4 (≈ 5.66 µM) | < 4 | – | – | –
C[C@@H]1CC[C@@]2(OC1)O[C@H]1C[C@H]3[C@@H]4CC=C5C[C@@H](O[C@@H]6O[C@H](CO)[C@@H](O)[C@H](O)[C@H]6NC(=O)[C@@H](O)CO)CC[C@]5(C)[C@H]4CC[C@]3(C)[C@H]1[C@@H]2C | 16 (≈ 24.1 µM) | > 128 | 56 | > 128 | > 128 | > 128 | > 128 | > 128 | 2 (≈ 3.01 µM) | > 128 | > 128 | – | 27 | – | –
C[C@@H]1CC[C@@]2(OC1)O[C@H]1C[C@H]3[C@@H]4CC=C5C[C@@H](O[C@@H]6O[C@H](CO)[C@@H](O)[C@H](O)[C@H]6NC(=O)[C@H](C)N)CC[C@]5(C)[C@H]4CC[C@]3(C)[C@H]1[C@@H]2C | 4 (≈ 6.18 µM) | 4 (≈ 6.18 µM) | – | > 128 | 8 (≈ 12.4 µM) | > 128 | > 128 | > 128 | 2 (≈ 3.09 µM) | 4 (≈ 6.18 µM) | 4 (≈ 6.18 µM) | < 10 | – | – | –
C[C@@H]1CC[C@@]2(OC1)O[C@H]1C[C@H]3[C@@H]4CC=C5C[C@@H](O[C@@H]6O[C@H](CO)[C@@H](O)[C@H](O)[C@H]6NC(=O)CO)CC[C@]5(C)[C@H]4CC[C@]3(C)[C@H]1[C@@H]2C | > 128 | > 128 | – | > 128 | > 128 | > 128 | > 128 | > 128 | > 128 | > 128 | > 128 | < 10 | – | – | –
CC(=O)N[C@H]1[C@H](O[C@H]2CC[C@@]3(C)C(=CC[C@H]4[C@@H]5C[C@@H]6O[C@]7(CC[C@@H](C)CO7)[C@@H](C)[C@@H]6[C@@]5(C)CC[C@@H]43)C2)O[C@H](CO)[C@@H](O)[C@@H]1O | > 128 | > 128 | – | > 128 | > 128 | > 128 | > 128 | > 128 | – | > 128 | > 128 | – | – | – | –
C[C@@H]1CC[C@@]2(OC1)O[C@H]1C[C@H]3[C@@H]4CC=C5C[C@@H](O[C@@H]6O[C@H](CO)[C@@H](O)[C@H](O)[C@H]6NC(=O)[C@H](C)NC(=O)[C@H](C)N)CC[C@]5(C)[C@H]4CC[C@]3(C)[C@H]1[C@@H]2C | 64 (≈ 89.1 µM) | 128 (≈ 178 µM) | 74 | > 128 | 64 (≈ 89.1 µM) | > 128 | > 128 | > 128 | 32 (≈ 44.6 µM) | > 128 | 128 (≈ 178 µM) | – | 57 | – | –
C[C@@H]1[C@H](O)[C@@H](C)/C=C/C=C/C=C/C=C/C=C/C=C/C=C/[C@H](O[C@@H]2O[C@H](C)[C@@H](O)[C@H](N)[C@@H]2O)C[C@@H]2O[C@](O)(C[C@@H](O)C[C@@H](O)[C@H](O)CC[C@@H](O)C[C@@H](O)CC(=O)O[C@H]1C)C[C@H](O)[C@H]2C(=O)O [AMPHOTERICIN B] | – | – | – | – | – | – | – | – | – | – | – | – | – | 0.5 (≈ 0.541 µM) | –
C[C@@H]1CC[C@@]2(OC1)O[C@H]1C[C@H]3[C@@H]4CC=C5C[C@@H](O[C@@H]6O[C@H](CO)[C@@H](O)[C@H](O)[C@H]6NC(=O)[C@H](C)O)CC[C@]5(C)[C@H]4CC[C@]3(C)[C@H]1[C@@H]2C | > 128 | > 128 | – | > 128 | > 128 | > 128 | > 128 | > 128 | > 128 | > 128 | > 128 | < 10 | – | – | –
CN[C@H](CC(C)C)C(=O)N[C@H]1C(=O)N[C@@H](CC(N)=O)C(=O)N[C@H]2C(=O)N[C@H]3C(=O)N[C@H](C(=O)N[C@H](C(=O)O)c4cc(O)cc(O)c4-c4cc3ccc4O)[C@H](O)c3ccc(c(Cl)c3)Oc3cc2cc(c3O[C@@H]2O[C@H](CO)[C@@H](O)[C@H](O)[C@H]2O[C@H]2C[C@](C)(N)[C@H](O)[C@H](C)O2)Oc2ccc(cc2Cl)[C@H]1O [VANCOMYCIN] | – | – | – | – | – | – | – | – | – | – | – | – | – | – | 2 (≈ 1.38 µM)
C[C@@H]1CC[C@@]2(OC1)O[C@H]1C[C@H]3[C@@H]4CC=C5C[C@@H](O[C@@H]6O[C@H](CO)[C@@H](O)[C@H](O)[C@H]6NC(=O)[C@@H](N)CO)CC[C@]5(C)[C@H]4CC[C@]3(C)[C@H]1[C@@H]2C | 4 (≈ 6.03 µM) | 8 (≈ 12.1 µM) | 46 | > 128 | 8 (≈ 12.1 µM) | > 128 | > 128 | > 128 | 4 (≈ 6.03 µM) | 16 (≈ 24.1 µM) | 4 (≈ 6.03 µM) | – | – | – | –
